Experimental data taken from US20040102325A1, “Phenylpropynyloxypyridine herbicides” (priority 2000, published 2004).

Tests used:
Type in all cases: in vivo
Stellaria [1] = assay: Post-emergence herbicidal action, Stellaria; set-up: key: 1=total damage; 9=no action; conditions: post-emergence (2- to 3-leaf stage), 1000 g a.i/ha, 2 to 3 weeks, scale of nine ratings (1=total damage, 9=no action)
Method: (§1) Monocotyledonous and dicotyledonous test plants are sown in standard soil in pots, and at the 2- to 3-leaf stage are sprayed with an aqueous suspension of the test compounds (prepared from a wettable powder (Example F3, b) according to WO 97/34485) or with an emulsion of the test compounds (prepared from an emulsifiable concentrate (Example F1, c) according to WO 97/34485) at an optimum rate of application of 500 litres of water/ha). The test plants are then grown on in the greenhouse under optimum conditions. After a test duration of 2 to 3 weeks, the test is evaluated in accordance with a scale of nine ratings (1=total damage, 9=no action). Ratings of from 1 to 4 (especially from 1 to 3) indicate good to very good herbicidal action. Test plants: Panicum, Euphorbia, Sida, Amaranthus, Chenopodium, Stellaria, Veronica.

Veronica [2] = assay: Pre-emergence herbicidal action, Veronica; set-up: key: 1=total damage; 9=no action; conditions: 1000 g a.i./ha, 4 weeks, scale of nine ratings (1=total damage, 9=no action)
Source text: (§2) Monocotyledonous and dicotyledonous test plants are sown in standard soil in pots. Immediately after sowing, an aqueous suspension of the test compounds (prepared from a wettable powder (Example F3, b) according to WO 97/34485) or an emulsion of the test compounds (prepared from an emulsifiable concentrate (Example F1, c) according to WO 97/34485) is applied by spraying at an optimum rate of application (500 litres of water/ha). The test plants are then cultivated in a greenhouse under optimum conditions. After a test duration of 4 weeks, the test is evaluated in accordance with a scale of nine ratings (1=total damage, 9=no action). Ratings of from 1 to 4 (especially from 1 to 3) indicate good to very good herbicidal action. Test plants: Setaria, Panicum, Digitaria, Amaranthus, Stellaria, Veronica.

Stellaria [3] = assay: Pre-emergence herbicidal action, Stellaria; set-up: key: 1=total damage; 9=no action; conditions: 1000 g a.i./ha, 4 weeks, scale of nine ratings (1=total damage, 9=no action)
Source text: as §2

Setaria = assay: Pre-emergence herbicidal action, Setaria; set-up: key: 1=total damage; 9=no action; conditions: 1000 g a.i./ha, 4 weeks, scale of nine ratings (1=total damage, 9=no action)
Source text: as §2

Amaranthus [4] = assay: Post-emergence herbicidal action, Amaranthus; set-up: key: 1=total damage; 9=no action; conditions: post-emergence (2- to 3-leaf stage), 1000 g a.i/ha, 2 to 3 weeks, scale of nine ratings (1=total damage, 9=no action)
Method: as §1

Chenopodium = assay: Post-emergence herbicidal action, Chenopodium; set-up: key: 1=total damage; 9=no action; conditions: post-emergence (2- to 3-leaf stage), 1000 g a.i/ha, 2 to 3 weeks, scale of nine ratings (1=total damage, 9=no action)
Method: as §1

Sida = assay: Post-emergence herbicidal action, Sida; conditions: post-emergence (2- to 3-leaf stage), 1000 g a.i/ha, 2 to 3 weeks, scale of nine ratings (1=total damage, 9=no action)
Method: as §1

Panicum [5] = assay: Post-emergence herbicidal action, Panicum; set-up: key: 1=total damage; 9=no action; conditions: post-emergence (2- to 3-leaf stage), 1000 g a.i/ha, 2 to 3 weeks, scale of nine ratings (1=total damage, 9=no action)
Method: as §1

Panicum [6] = assay: Pre-emergence herbicidal action, Panicum; set-up: key: 1=total damage; 9=no action; conditions: 1000 g a.i./ha, 4 weeks, scale of nine ratings (1=total damage, 9=no action)
Source text: as §2

Digitaria = assay: Pre-emergence herbicidal action, Digitaria; set-up: key: 1=total damage; 9=no action; conditions: 1000 g a.i./ha, 4 weeks, scale of nine ratings (1=total damage, 9=no action)
Source text: as §2

Amaranthus [7] = assay: Pre-emergence herbicidal action, Amaranthus; set-up: key: 1=total damage; 9=no action; conditions: 1000 g a.i./ha, 4 weeks, scale of nine ratings (1=total damage, 9=no action)
Source text: as §2

Euphorbia = assay: Post-emergence herbicidal action, Euphorbia; set-up: key: 1=total damage; 9=no action; conditions: post-emergence (2- to 3-leaf stage), 1000 g a.i/ha, 2 to 3 weeks, scale of nine ratings (1=total damage, 9=no action)
Method: as §1

Veronica [8] = assay: Post-emergence herbicidal action, Veronica; set-up: key: 1=total damage; 9=no action; conditions: post-emergence (2- to 3-leaf stage), 1000 g a.i/ha, 2 to 3 weeks, scale of nine ratings (1=total damage, 9=no action)
Method: as §1

Structure (SMILES) | Stellaria, herbicidal action rating (Stellaria [1]) | Veronica, herbicidal action rating (Veronica [2]) | Stellaria, herbicidal action rating (Stellaria [3]) | Setaria, herbicidal action rating (Setaria) | Amaranthus, herbicidal action rating (Amaranthus [4]) | Chenopodium, herbicidal action rating (Chenopodium) | Sida, herbicidal action rating (Sida) | Panicum, herbicidal action rating (Panicum [5]) | Panicum, herbicidal action rating (Panicum [6]) | Digitaria, herbicidal action rating (Digitaria) | Amaranthus, herbicidal action rating (Amaranthus [7]) | Euphorbia, herbicidal action rating (Euphorbia) | Veronica, herbicidal action rating (Veronica [8])
N#CCc1cccc(C#CCOc2ccc(Cl)cn2)c1 [1.007] | 6 | 7 | 1 | 5 | 1 | 1 | 4 | 2 | 1 | 1 | 1 | 2 | 1
N#CCc1cccc(C#CCOc2ccc(Br)cn2)c1 [1.008] | 4 | 1 | 4 | 7 | 1 | 1 | 3 | 7 | 1 | 1 | 1 | 2 | 2
N#CCc1cccc(C#CCOc2ncc(F)cc2F)c1 [1.009] | 2 |  | 3 |  | 1 | 1 | 2 | 2 |  | 1 | 2 | 1 | 2
N#CCc1cccc(C#CCOc2ncc(Cl)cc2F)c1 [1.011] | 2 | 1 | 1 | 6 | 2 | 1 | 2 | 2 | 1 | 1 | 1 | 2 | 2
COc1cc(F)cnc1OCC#Cc1cccc(CC#N)c1 [1.015] | 1 | 4 | 1 | 7 | 1 | 1 | 3 | 1 | 2 | 2 | 1 | 1 | 2
COc1cc(Cl)cnc1OCC#Cc1cccc(CC#N)c1 [1.016] | 1 | 1 | 1 | 4 | 1 | 1 | 2 | 2 | 2 | 1 | 1 | 1 | 1
COc1cc(Br)cnc1OCC#Cc1cccc(CC#N)c1 [1.017] | 1 | 2 | 1 | 5 | 2 | 1 | 2 | 4 | 2 | 2 | 1 | 1 | 2
COc1cc(C)cnc1OCC#Cc1cccc(CC#N)c1 [1.022] | 4 | 1 | 2 |  | 3 | 3 | 3 | 6 | 2 |  | 1 | 2 | 3
Cc1ccc(OC(F)F)c(OCC#Cc2cccc(CC#N)c2)n1 [1.024] | 1 | 1 | 1 | 1 | 1 | 1 | 2 |  |  |  | 1 | 2 | 3
N#CCc1cccc(C#CCOc2ncc(Cl)cc2OC(F)F)c1 [1.025] | 4 | 1 | 1 | 1 | 2 | 7 | 3 |  | 1 | 2 | 1 | 2 | 4
CSc1cccnc1OCC#Cc1cccc(CC#N)c1 [1.047] | 1 | 4 | 1 | 1 | 2 | 1 | 3 | 4 | 2 | 1 | 1 | 1 | 3
COc1cc(Cl)cnc1OCC#Cc1ccccc1 [1.094] | 2 | 1 | 1 |  | 1 | 3 | 2 | 2 |  |  | 3 | 1 | 3
